Where two headings read alike, the source gives them in different places.
Molecular target: human PDE4D catalytic domain (UniProt no. Q08499) (Homo sapiens (Human), UniProt Q08499)
Assay: PDE4 assay (TR-FRET, FAM-cAMP cleavage)
Format: biochemical
Conditions: read-out: PDE4 IC50 range
Method: The human PDE4D catalytic domain (UniProt no. Q08499 [[…]]) was incubated with a mixture of non-labelled cAMP (cyclic adenosine monophosphate) and fluorescein amidite (FAM) conjugated cAMP and titrated test or reference compound. Following brief incubation the enzymatic reaction was stopped by addition of binding buffer containing nanoparticles with immobilized trivalent metal ions capable of binding 1) AMP phospho groups and 2) terbium (Tb) donor fluorophores. Subsequent excitation of the Tb donor triggers time-resolved FRET to adjacent FAM acceptor molecules resulting in light emission. In the presence of a PDE4 inhibitor, AMP generation was reduced resulting in a lower fluorescence signal. The cAMP phosphodiester is not bound by the detection system.
The results were calculated as the molar concentrations resulting in 50% inhibition of the substrate cleavage compared to controls samples, and are expressed as a range of IC50 (nM).

[1] = human PDE4D catalytic domain, molar concentration giving 50% inhibition of substrate cleavage

Sequence of human PDE4D catalytic domain (Q08499 380-740 limits assumed): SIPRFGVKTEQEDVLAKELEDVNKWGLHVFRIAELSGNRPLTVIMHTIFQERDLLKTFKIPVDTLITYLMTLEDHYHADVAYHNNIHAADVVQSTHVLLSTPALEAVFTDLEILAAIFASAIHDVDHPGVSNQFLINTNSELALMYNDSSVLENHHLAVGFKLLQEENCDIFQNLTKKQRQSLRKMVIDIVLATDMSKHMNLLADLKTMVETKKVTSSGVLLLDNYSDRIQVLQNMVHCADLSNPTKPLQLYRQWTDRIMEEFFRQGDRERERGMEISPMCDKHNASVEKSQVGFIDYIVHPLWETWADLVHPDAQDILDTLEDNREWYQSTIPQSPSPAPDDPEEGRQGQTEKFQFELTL

Structure (SMILES)	IC50 [1]	IC50
CCc1nn(C[C@@H](C)COC(=O)c2ccc(C(F)(F)F)c(F)c2)c2c1C(=O)NCC1(CCOCC1)C2 [Example 219, [(2R)-3-(3-ethyl-4-oxo-spiro[6,8-dihydro-5H-pyrazolo[4,3-c]azepine-7,4′-tetrahydropyran]-1-yl)-2-methyl-propyl] 3-fluoro-4-(trifluoromethyl)benzoate]	< 100 nM	
CCc1nn(CCCOC(=O)c2ccc(C)cc2Cl)c2c1C(=O)NCC1(CCOCC1)C2 [Example 73, 3-(3-ethyl-4-oxo-spiro[6,8-dihydro-5H-pyrazolo[4,3-c]azepine-7,4′-tetrahydropyran]-1-yl)propyl 2-chloro-4-methyl-benzoate]	< 100 nM	
CCc1nn(CCCOC(=O)c2cc(Cl)ccc2C)c2c1C(=O)NCC1(CCOCC1)C2 [Example 75, 3-(3-ethyl-4-oxo-spiro[6,8-dihydro-5H-pyrazolo[4,3-c]azepine-7,4′-tetrahydropyran]-1-yl)propyl 5-chloro-2-methyl-benzoate]	< 100 nM	
CCc1nn(CCCOC(=O)c2ccc(C(F)(F)F)cc2F)c2c1C(=O)NCC1(CCOCC1)C2 [Example 113, 3-(3-ethyl-4-oxo-spiro[6,8-dihydro-5H-pyrazolo[4,3-c]azepine-7,4′-tetrahydropyran]-1-yl)propyl 2-fluoro-4-(trifluoromethyl)benzoate]	< 100 nM	
CCc1nn(CCCOC(=O)c2ccc(C(=O)N3CCOCC3)cc2)c2c1C(=O)NCC1(CCOCC1)C2 [Example 147, 3-(3-ethyl-4-oxo-spiro[6,8-dihydro-5H-pyrazolo[4,3-c]azepine-7,4′-tetrahydropyran]-1-yl)propyl 4-(morpholine-4-carbonyl)benzoate]	100 to 500 nM	
CCc1nn(CCCOC(=O)c2ccc(F)c(C(F)(F)F)c2)c2c1C(=O)NCC1(CCOCC1)C2 [Example 111, 3-(3-ethyl-4-oxo-spiro[6,8-dihydro-5H-pyrazolo[4,3-c]azepine-7,4′-tetrahydropyran]-1-yl)propyl 4-fluoro-3-(trifluoromethyl)benzoate]	< 100 nM	
CCc1nn(CCCOC(=O)c2ccc(Cl)cc2OC)c2c1C(=O)NCC1(CCOCC1)C2 [Example 92, 3-(3-ethyl-4-oxo-spiro[6,8-dihydro-5H-pyrazolo[4,3-c]azepine-7,4′-tetrahydropyran]-1-yl)propyl 4-chloro-2-methoxy-benzoate]	< 100 nM	
CCc1nn(C[C@@H](C)COC(=O)c2ccc(Cl)cc2C(F)(F)F)c2c1C(=O)NCC1(CCOCC1)C2 [Example 236, [(2R)-3-(3-ethyl-4-oxo-spiro[6,8-dihydro-5H-pyrazolo[4,3-c]azepine-7,4′-tetrahydropyran]-1-yl)-2-methyl-propyl] 4-chloro-2-(trifluoromethyl)benzoate]	< 100 nM	
CCc1nn(CCCCOC(=O)c2cccc(C)c2)c2c1C(=O)NCC1(CCOCC1)C2 [Example 364, 4-(3-ethyl-4-oxo-spiro[6,8-dihydro-5H-pyrazolo[4,3-c]azepine-7,4′-tetrahydropyran]-1-yl)butyl 3-methylbenzoate]		< 100 nM
CCc1nn(C[C@@H](C)COC(=O)c2ccc(C(F)(F)F)cc2)c2c1C(=O)NCC1(CCOCC1)C2 [Example 212, [(2R)-3-(3-ethyl-4-oxo-spiro[6,8-dihydro-5H-pyrazolo[4,3-c]azepine-7,4′-tetrahydropyran]-1-yl)-2-methyl-propyl] 4-(trifluoromethyl)benzoate]	< 100 nM	
CCc1nn(CCCOC(=O)c2ccc(C(C)=O)cc2)c2c1C(=O)NCC1(CCOCC1)C2 [Example 50, 3-(3-ethyl-4-oxo-spiro[6,8-dihydro-5H-pyrazolo[4,3-c]azepine-7,4′-tetrahydropyran]-1-yl)propyl 4-acetylbenzoate]	< 100 nM	
CCc1nn(CC(C)(C)COC(=O)c2ccc(C#N)c(F)c2)c2c1C(=O)NCC1(CCOCC1)C2 [Example 297, [3-(3-ethyl-4-oxo-spiro[6,8-dihydro-5H-pyrazolo[4,3-c]azepine-7,4′-tetrahydropyran]-1-yl)-2,2-dimethyl-propyl] 4-cyano-3-fluoro-benzoate]		< 100 nM
CCc1nn(C[C@@H](C)COC(=O)c2cccc(OC)c2F)c2c1C(=O)NCC1(CCOCC1)C2 [Example 190, [(2R)-3-(3-ethyl-4-oxo-spiro[6,8-dihydro-5H-pyrazolo[4,3-c]azepine-7,4′-tetrahydropyran]-1-yl)-2-methyl-propyl] 2-fluoro-3-methoxy-benzoate]	< 100 nM	
CCc1nn(C[C@@H](C)COC(=O)c2cccc(C(C)=O)c2)c2c1C(=O)NCC1(CCOCC1)C2 [Example 181, [(2R)-3-(3-ethyl-4-oxo-spiro[6,8-dihydro-5H-pyrazolo[4,3-c]azepine-7,4′-tetrahydropyran]-1-yl)-2-methyl-propyl] 3-acetylbenzoate]	< 100 nM	
CCc1nn(CCCOC(=O)c2cccc(C(F)(F)F)c2Cl)c2c1C(=O)NCC1(CCOCC1)C2 [Example 123, 3-(3-ethyl-4-oxo-spiro[6,8-dihydro-5H-pyrazolo[4,3-c]azepine-7,4′-tetrahydropyran]-1-yl)propyl 2-chloro-3-(trifluoromethyl)benzoate]	< 100 nM	
CCc1nn(CCCOC(=O)c2c(C)cccc2F)c2c1C(=O)NCC1(CCOCC1)C2 [Example 39, 3-(3-ethyl-4-oxo-spiro[6,8-dihydro-5H-pyrazolo[4,3-c]azepine-7,4′-tetrahydropyran]-1-yl)propyl 2-fluoro-6-methyl-benzoate]	< 100 nM	
CCc1nn(C[C@@H](C)COC(=O)c2cccc(OC)c2Cl)c2c1C(=O)NCC1(CCOCC1)C2 [Example 207, [(2R)-3-(3-ethyl-4-oxo-spiro[6,8-dihydro-5H-pyrazolo[4,3-c]azepine-7,4′-tetrahydropyran]-1-yl)-2-methyl-propyl] 2-chloro-3-methoxy-benzoate]	< 100 nM	
CCc1nn(C[C@@H](C)COC(=O)c2cc(Cl)cc(C(F)(F)F)c2)c2c1C(=O)NCC1(CCOCC1)C2 [Example 240, [(2R)-3-(3-ethyl-4-oxo-spiro[6,8-dihydro-5H-pyrazolo[4,3-c]azepine-7,4′-tetrahydropyran]-1-yl)-2-methyl-propyl] 3-chloro-5-(trifluoromethyl)benzoate]	< 100 nM	
CCc1nn(CC(C)(C)COC(=O)c2ccc(C(=O)N(C)C)cc2)c2c1C(=O)NCC1(CCOCC1)C2 [Example 331, [3-(3-ethyl-4-oxo-spiro[6,8-dihydro-5H-pyrazolo[4,3-c]azepine-7,4′-tetrahydropyran]-1-yl)-2,2-dimethyl-propyl] 4-(dimethylcarbamoyl)benzoate]		< 100 nM
CCc1nn(CCCOC(=O)c2cccc(Cl)c2C)c2c1C(=O)NCC1(CCOCC1)C2 [Example 74, 3-(3-ethyl-4-oxo-spiro[6,8-dihydro-5H-pyrazolo[4,3-c]azepine-7,4′-tetrahydropyran]-1-yl)propyl 3-chloro-2-methyl-benzoate]	< 100 nM	
CCc1nn(CC(C)(C)COC(=O)c2cccc(Cl)c2)c2c1C(=O)NCC1(CCOCC1)C2 [Example 291, [3-(3-ethyl-4-oxo-spiro[6,8-dihydro-5H-pyrazolo[4,3-c]azepine-7,4′-tetrahydropyran]-1-yl)-2,2-dimethyl-propyl] 3-chlorobenzoate]		< 100 nM
CCc1nn(CC(C)(C)COC(=O)c2cccc(C(=O)N3CCNCC3)c2)c2c1C(=O)NCC1(CCOCC1)C2 [Example 346, [3-(3-ethyl-4-oxo-spiro[6,8-dihydro-5H-pyrazolo[4,3-c]azepine-7,4′-tetrahydropyran]-1-yl)-2,2-dimethyl-propyl] 3-(piperazine-1-carbonyl)benzoate]		< 100 nM
CCc1nn(CCCOC(=O)c2ccc(C(F)(F)F)cc2C(F)(F)F)c2c1C(=O)NCC1(CCOCC1)C2 [Example 135, 3-(3-ethyl-4-oxo-spiro[6,8-dihydro-5H-pyrazolo[4,3-c]azepine-7,4′-tetrahydropyran]-1-yl)propyl 2,4-bis(trifluoromethyl) benzoate]	< 100 nM	
CCc1nn(C[C@@H](C)COC(=O)c2ccc(S(=O)(=O)N(C)C)cc2)c2c1C(=O)NCC1(CCOCC1)C2 [Example 4, [(2R)-3-(3-Ethyl-4-oxo-spiro[6,8-dihydro-5H-pyrazolo[4,3-c]azepine-7,4′-tetrahydro-pyran]-1-yl)-2-methyl-propyl] 4-(dimethylsulfamoyl)benzoate]	< 100 nM	
CCc1nn(CC2(COC(=O)c3ccc(Cl)cc3)COC2)c2c1C(=O)NCC1(CCOCC1)C2 [Example 361, [3-[(3-ethyl-4-oxo-spiro[6,8-dihydro-5H-pyrazolo[4,3-c]azepine-7,4′-tetrahydropyran]-1-yl)methyl]oxetan-3-yl]methyl 4-chlorobenzoate]		< 100 nM
CCc1nn(CC(C)(C)COC(=O)c2ccc(S(C)(=O)=O)cc2)c2c1C(=O)NCC1(CCOCC1)C2 [Example 306, [3-(3-ethyl-4-oxo-spiro[6,8-dihydro-5H-pyrazolo[4,3-c]azepine-7,4′-tetrahydropyran]-1-yl)-2,2-dimethyl-propyl] 4-methylsulfonylbenzoate]		< 100 nM
CCc1nn(CCCOC(=O)c2ccc(C(F)F)cc2)c2c1C(=O)NCC1(CCOCC1)C2 [Example 76, 3-(3-ethyl-4-oxo-spiro[6,8-dihydro-5H-pyrazolo[4,3-c]azepine-7,4′-tetrahydropyran]-1-yl)propyl 4-(difluoromethyl)benzoate]	< 100 nM	
CCc1nn(CCCOC(=O)c2cccc(C(=O)NC)c2)c2c1C(=O)NCC1(CCOCC1)C2 [Example 151, 3-(3-ethyl-4-oxo-spiro[6,8-dihydro-5H-pyrazolo[4,3-c]azepine-7,4′-tetra-hydropyran]-1-yl)propyl 3-(methylcarbamoyl)benzoate]	< 100 nM	

Source: patent US10906915B2, “Substituted pyrazoloazepin-4-ones and their use as phosphodiesterase inhibitors” (LEO Pharma A/S, priority 2016, dated 2021)
